Reference: PubChem BioAssay AID1963962 (Molecular Pharmacology Branch, DTP, NCI, 2024)

Test system: 967376-340-R-J2-PDC multicell spheroid viability
Test: Anticancer human tumor 967376-340-R-J2-PDC patient-derived colon adenocarcinoma cell line growth inhibition [PI3K]
Settings: for IC50: curve of first compound; for viability, T/C: stronger effect = lower value; active = viability on the fitted dose curve at most 10% of control; inactive = the rest
Procedure, shortened: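 Spheroid viability read-out. Co-cultures contained the tumor line plus HUVEC and human MSCs. Each agent was paired with a PI3K inhibitor (inavolisib, alpelisib, duvelisib, copanlisib) across half-log dilutions starting at clinical Cmax, or at 10 microM when Cmax was unknown.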

[1] = second compound 0.0316 µM, first compound 0.0316 µM
[2] = second compound 0.0316 µM, first compound 0.1 µM
[3] = second compound 0.0316 µM, first compound 0.316 µM
[4] = second compound 0.0316 µM, first compound 1 µM
[5] = second compound 0.0316 µM, first compound 3.16 µM
[6] = second compound 0.0316 µM, first compound 10 µM
[7] = second compound 0.1 µM, first compound 0.0316 µM
[8] = second compound 0.1 µM, first compound 0.1 µM
[9] = second compound 0.1 µM, first compound 0.316 µM
[10] = second compound 0.1 µM, first compound 1 µM
[11] = second compound 0.1 µM, first compound 3.16 µM
[12] = second compound 0.1 µM, first compound 10 µM
[13] = second compound 0.316 µM, first compound 0.0316 µM
[14] = second compound 0.316 µM, first compound 0.1 µM
[15] = second compound 0.316 µM, first compound 0.316 µM
[16] = second compound 0.316 µM, first compound 1 µM
[17] = second compound 0.316 µM, first compound 3.16 µM
[18] = second compound 0.316 µM, first compound 10 µM
[19] = second compound 1 µM, first compound 0.0316 µM
[20] = second compound 1 µM, first compound 0.1 µM
[21] = second compound 1 µM, first compound 0.316 µM
[22] = second compound 1 µM, first compound 1 µM
[23] = second compound 1 µM, first compound 3.16 µM
[24] = second compound 1 µM, first compound 10 µM
[25] = second compound 3.16 µM, first compound 0.0316 µM
[26] = second compound 3.16 µM, first compound 0.1 µM
[27] = second compound 3.16 µM, first compound 0.316 µM
[28] = second compound 3.16 µM, first compound 1 µM
[29] = second compound 3.16 µM, first compound 3.16 µM
[30] = second compound 3.16 µM, first compound 10 µM
[31] = second compound 10 µM, first compound 0.0316 µM
[32] = second compound 10 µM, first compound 0.1 µM
[33] = second compound 10 µM, first compound 0.316 µM
[34] = second compound 10 µM, first compound 1 µM
[35] = second compound 10 µM, first compound 3.16 µM
[36] = second compound 10 µM, first compound 10 µM
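Note: spheroids exposed to agents for 7 days before read-out.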
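Throughout, for viability, T/C: luminescence used as surrogate of cell viability.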

CC1(C)CCC(CN2CCN(c3ccc(C(=O)NS(=O)(=O)c4ccc(NCC5CCOCC5)c([N+](=O)[O-])c4)c(Oc4cnc5[nH]ccc5c4)c3)CC2)=C(c2ccc(Cl)cc2)C1 + Cc1nc(NC(=O)N2CCCC2C(N)=O)sc1-c1ccnc(C(C)(C)C(F)(F)F)c1
> 10 µM: IC50 (second compound 0.0316 µM) | IC50 (second compound 1 µM)
8.83 µM: IC50 (second compound 0.1 µM)
2.63 µM: IC50 (second compound 10 µM)
inactive: viability, T/C [1] 103% | viability, T/C [2] 91.3% | viability, T/C [3] 88.8% | viability, T/C [4] 86% | viability, T/C [5] 104% | viability, T/C [6] 55.1% | viability, T/C [7] 88.9% | viability, T/C [8] 83.6% | viability, T/C [9] 86.4% | viability, T/C [10] 86.8% | viability, T/C [11] 77.8% | viability, T/C [12] 46.5% | viability, T/C [13] 88.2% | viability, T/C [14] 76.8% | viability, T/C [15] 73% | viability, T/C [16] 66.1% | viability, T/C [17] 75.9% | viability, T/C [18] 46% | viability, T/C [19] 86.1% | viability, T/C [20] 73.3% | viability, T/C [21] 72.1% | viability, T/C [22] 61.5% | viability, T/C [23] 69.2% | viability, T/C [24] 52.3% | viability, T/C [25] 57.1% | viability, T/C [26] 71.8% | viability, T/C [27] 63% | viability, T/C [28] 60.5% | viability, T/C [29] 59% | viability, T/C [30] 33.4% | viability, T/C [31] 63.9% | viability, T/C [32] 50.3% | viability, T/C [33] 62.7% | viability, T/C [34] 48.8% | viability, T/C [35] 53% | viability, T/C [36] 38.6%
8.52 µM: IC50 (second compound 0.316 µM)
4.67 µM: IC50 (second compound 3.16 µM)

C[C@@H](NC(=O)c1ncnc(N)c1Cl)c1ncc(C(=O)Nc2cc(C(F)(F)F)c(Cl)cn2)s1 + Cc1nc(NC(=O)N2CCCC2C(N)=O)sc1-c1ccnc(C(C)(C)C(F)(F)F)c1
inactive: viability, T/C [1] 87.1% | viability, T/C [2] 88.3% | viability, T/C [3] 84.6% | viability, T/C [4] 105% | viability, T/C [5] 94.2% | viability, T/C [6] 100% | viability, T/C [7] 105% | viability, T/C [8] 77.1% | viability, T/C [9] 85.4% | viability, T/C [10] 96.7% | viability, T/C [11] 98.3% | viability, T/C [12] 97.6% | viability, T/C [13] 65.6% | viability, T/C [14] 100% | viability, T/C [15] 68% | viability, T/C [16] 99.7% | viability, T/C [17] 89.7% | viability, T/C [18] 78.7% | viability, T/C [19] 72.8% | viability, T/C [20] 80.4% | viability, T/C [21] 79.6% | viability, T/C [22] 70.1% | viability, T/C [23] 96.6% | viability, T/C [24] 76% | viability, T/C [25] 55% | viability, T/C [26] 71% | viability, T/C [27] 71.9% | viability, T/C [28] 74% | viability, T/C [29] 69.4% | viability, T/C [30] 68.2% | viability, T/C [31] 56.4% | viability, T/C [32] 59.9% | viability, T/C [33] 62.1% | viability, T/C [34] 54% | viability, T/C [35] 61.8% | viability, T/C [36] 54.5%
> 10 µM: IC50 (second compound 0.0316 µM) | IC50 (second compound 0.1 µM) | IC50 (second compound 0.316 µM) | IC50 (second compound 1 µM) | IC50 (second compound 3.16 µM) | IC50 (second compound 10 µM)

Cn1ncnc1[C@H]1c2n[nH]c(=O)c3cc(F)cc(c23)N[C@@H]1c1ccc(F)cc1 + Cc1nc(NC(=O)N2CCCC2C(N)=O)sc1-c1ccnc(C(C)(C)C(F)(F)F)c1
0.0218 µM: IC50 (second compound 10 µM)
> 0.1 µM: IC50 (second compound 0.0316 µM) | IC50 (second compound 0.1 µM) | IC50 (second compound 0.316 µM) | IC50 (second compound 1 µM) | IC50 (second compound 3.16 µM)
inactive: viability, T/C (second compound 0.0316 µM, first compound 0.000316 µM) 85.9% | viability, T/C (second compound 0.0316 µM, first compound 0.001 µM) 84.8% | viability, T/C (second compound 0.0316 µM, first compound 0.00316 µM) 83% | viability, T/C (second compound 0.0316 µM, first compound 0.01 µM) 79.5% | viability, T/C [1] 109% | viability, T/C [2] 86.2% | viability, T/C (second compound 0.1 µM, first compound 0.000316 µM) 104% | viability, T/C (second compound 0.1 µM, first compound 0.001 µM) 69.8% | viability, T/C (second compound 0.1 µM, first compound 0.00316 µM) 77.9% | viability, T/C (second compound 0.1 µM, first compound 0.01 µM) 92.8% | viability, T/C [7] 82.6% | viability, T/C [8] 82.1% | viability, T/C (second compound 0.316 µM, first compound 0.000316 µM) 70.7% | viability, T/C (second compound 0.316 µM, first compound 0.001 µM) 69% | viability, T/C (second compound 0.316 µM, first compound 0.00316 µM) 50.6% | viability, T/C (second compound 0.316 µM, first compound 0.01 µM) 76.6% | viability, T/C [13] 71.3% | viability, T/C [14] 67.8% | viability, T/C (second compound 1 µM, first compound 0.000316 µM) 58.9% | viability, T/C (second compound 1 µM, first compound 0.001 µM) 71.8% | viability, T/C (second compound 1 µM, first compound 0.00316 µM) 71.8% | viability, T/C (second compound 1 µM, first compound 0.01 µM) 67% | viability, T/C [19] 55.1% | viability, T/C [20] 60.3% | viability, T/C (second compound 3.16 µM, first compound 0.000316 µM) 51% | viability, T/C (second compound 3.16 µM, first compound 0.001 µM) 65.9% | viability, T/C (second compound 3.16 µM, first compound 0.00316 µM) 65.5% | viability, T/C (second compound 3.16 µM, first compound 0.01 µM) 68.9% | viability, T/C [25] 62.4% | viability, T/C [26] 56% | viability, T/C (second compound 10 µM, first compound 0.000316 µM) 48.2% | viability, T/C (second compound 10 µM, first compound 0.001 µM) 71.1% | viability, T/C (second compound 10 µM, first compound 0.00316 µM) 51.5% | viability, T/C (second compound 10 µM, first compound 0.01 µM) 38.8% | viability, T/C [31] 50.8% | viability, T/C [32] 51.7%
